Test results published in PMC10507085, “Pharmacological inhibition of TBK1/IKKε blunts immunopathology in a murine model of SARS-CoV-2 infection” (Nature Communications, 2023).

Columns and labels:
LTK = LTK (Homo sapiens, UniProt P29376); assay: biochemical; settings: read-out: Percent Control
DYRK1B = DYRK1B (Homo sapiens, UniProt Q9Y463); assay: biochemical; settings: read-out: Percent Control
DRAK1 [1] = biological target: T1, DRAK1 (Homo sapiens, UniProt Q9UEE5); assay: biochemical; design: KINOMEscan competition binding, DNA-tagged kinase against immobilised ligand, qPCR read-out; settings: read-out: Percent Control
T1 construct: gene STK17A
T1 sequence (Q9UEE5 1-414): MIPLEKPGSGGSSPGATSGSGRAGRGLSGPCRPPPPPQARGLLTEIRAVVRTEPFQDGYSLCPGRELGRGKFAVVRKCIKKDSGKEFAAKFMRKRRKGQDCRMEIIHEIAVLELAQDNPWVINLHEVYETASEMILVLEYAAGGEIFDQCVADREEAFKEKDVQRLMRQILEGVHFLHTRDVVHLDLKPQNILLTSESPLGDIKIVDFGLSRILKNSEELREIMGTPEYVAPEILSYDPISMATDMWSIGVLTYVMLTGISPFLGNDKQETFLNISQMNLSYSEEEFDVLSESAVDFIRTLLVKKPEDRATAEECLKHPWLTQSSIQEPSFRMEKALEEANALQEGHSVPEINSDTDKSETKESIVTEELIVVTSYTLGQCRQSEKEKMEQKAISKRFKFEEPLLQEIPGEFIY

PFPK5(P.falciparum) = biological target: T2, PFPK5(P.falciparum) (Plasmodium falciparum, UniProt P61075); assay: biochemical; design: KINOMEscan competition binding, DNA-tagged kinase against immobilised ligand, qPCR read-out; settings: read-out: Percent Control
T2 construct: gene CRK2

DRAK1 [2] = biological target: T1, DRAK1; assay: KINOMEscan competition binding ([…] kinases, […] IDX)
PIM2 [3] = biological target: T3, PIM2 (Homo sapiens, UniProt Q9P1W9); assay: biochemical; design: KINOMEscan competition binding, DNA-tagged kinase against immobilised ligand, qPCR read-out; settings: read-out: Percent Control
DRAK1 [4] = biological target: T1, DRAK1; assay: biochemical; design: KINOMEscan competition binding, DNA-tagged kinase against immobilised ligand, qPCR read-out
PIM2 [5] = biological target: T3, PIM2; assay: biochemical; design: KINOMEscan competition binding, DNA-tagged kinase against immobilised ligand, qPCR read-out
[6] = biological target: T4, TBK1 (TANK-binding kinase 1) (Homo sapiens, UniProt Q9UHD2); assay: surface plasmon resonance (Biacore T200, steady-state affinity)
T4 construct: full-length human TBK1, expressed in Sf9, His tag removed by TEV

PKNB(M.tuberculosis) = PKNB(M.tuberculosis) (Mycobacterium tuberculosis, UniProt P9WI81); assay: biochemical; design: KINOMEscan competition binding, DNA-tagged kinase against immobilised ligand, qPCR read-out; settings: read-out: Percent Control
PIM2 [7] = biological target: T3, PIM2; assay: KINOMEscan competition binding ([…] kinases, […] IDX)

T3 sequence (Q9P1W9 whole entry): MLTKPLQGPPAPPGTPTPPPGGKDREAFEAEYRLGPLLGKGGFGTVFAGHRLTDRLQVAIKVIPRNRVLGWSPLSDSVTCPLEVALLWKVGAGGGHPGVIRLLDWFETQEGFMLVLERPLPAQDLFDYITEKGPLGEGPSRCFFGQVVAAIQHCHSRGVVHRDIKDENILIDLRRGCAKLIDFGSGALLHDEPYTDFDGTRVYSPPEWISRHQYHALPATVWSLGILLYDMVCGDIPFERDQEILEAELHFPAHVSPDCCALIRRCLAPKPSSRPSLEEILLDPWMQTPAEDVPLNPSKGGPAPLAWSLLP
T2 sequence (P61075 whole entry): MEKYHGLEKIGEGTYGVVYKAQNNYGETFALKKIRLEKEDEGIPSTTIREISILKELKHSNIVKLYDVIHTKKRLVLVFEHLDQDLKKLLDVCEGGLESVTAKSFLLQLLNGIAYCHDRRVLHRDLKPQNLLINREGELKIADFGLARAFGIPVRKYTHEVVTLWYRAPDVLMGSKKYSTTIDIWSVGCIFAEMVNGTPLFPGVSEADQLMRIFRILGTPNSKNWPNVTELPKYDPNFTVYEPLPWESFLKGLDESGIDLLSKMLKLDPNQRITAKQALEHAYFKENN
DYRK1B, sequence (Q9Y463 whole entry): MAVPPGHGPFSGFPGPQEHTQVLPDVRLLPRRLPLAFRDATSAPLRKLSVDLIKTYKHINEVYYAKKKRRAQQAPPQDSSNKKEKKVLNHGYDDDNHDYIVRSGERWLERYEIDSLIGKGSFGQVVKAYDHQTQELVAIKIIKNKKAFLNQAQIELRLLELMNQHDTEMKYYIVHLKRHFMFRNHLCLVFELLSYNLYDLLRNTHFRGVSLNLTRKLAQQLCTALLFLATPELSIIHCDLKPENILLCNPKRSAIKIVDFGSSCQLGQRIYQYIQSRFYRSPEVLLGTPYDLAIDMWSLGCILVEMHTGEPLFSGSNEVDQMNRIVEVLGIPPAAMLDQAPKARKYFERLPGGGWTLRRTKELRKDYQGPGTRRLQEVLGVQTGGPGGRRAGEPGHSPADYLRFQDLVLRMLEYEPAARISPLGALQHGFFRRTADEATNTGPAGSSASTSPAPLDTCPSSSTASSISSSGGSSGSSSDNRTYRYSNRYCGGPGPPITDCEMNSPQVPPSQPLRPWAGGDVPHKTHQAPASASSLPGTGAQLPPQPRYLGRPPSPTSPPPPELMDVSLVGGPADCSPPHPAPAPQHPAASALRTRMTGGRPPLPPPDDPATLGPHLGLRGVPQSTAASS
PKNB(M.tuberculosis), sequence (P9WI81 whole entry): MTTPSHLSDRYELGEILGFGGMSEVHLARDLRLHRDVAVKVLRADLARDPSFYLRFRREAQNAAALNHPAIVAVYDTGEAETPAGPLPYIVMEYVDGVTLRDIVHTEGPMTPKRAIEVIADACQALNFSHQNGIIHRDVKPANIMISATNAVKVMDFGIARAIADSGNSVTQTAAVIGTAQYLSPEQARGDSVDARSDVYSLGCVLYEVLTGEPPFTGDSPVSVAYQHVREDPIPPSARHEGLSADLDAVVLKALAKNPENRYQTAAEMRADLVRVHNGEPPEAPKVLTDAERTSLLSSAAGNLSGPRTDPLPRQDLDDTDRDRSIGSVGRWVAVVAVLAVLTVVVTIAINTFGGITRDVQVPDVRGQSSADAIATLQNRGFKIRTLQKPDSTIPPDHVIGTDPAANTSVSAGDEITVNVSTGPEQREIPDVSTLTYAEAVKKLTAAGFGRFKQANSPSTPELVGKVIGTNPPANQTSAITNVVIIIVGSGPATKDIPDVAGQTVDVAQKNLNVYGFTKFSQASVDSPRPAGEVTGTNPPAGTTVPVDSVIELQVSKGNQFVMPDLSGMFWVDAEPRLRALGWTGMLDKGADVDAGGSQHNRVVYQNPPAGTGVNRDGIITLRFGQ
LTK, sequence (P29376 whole entry): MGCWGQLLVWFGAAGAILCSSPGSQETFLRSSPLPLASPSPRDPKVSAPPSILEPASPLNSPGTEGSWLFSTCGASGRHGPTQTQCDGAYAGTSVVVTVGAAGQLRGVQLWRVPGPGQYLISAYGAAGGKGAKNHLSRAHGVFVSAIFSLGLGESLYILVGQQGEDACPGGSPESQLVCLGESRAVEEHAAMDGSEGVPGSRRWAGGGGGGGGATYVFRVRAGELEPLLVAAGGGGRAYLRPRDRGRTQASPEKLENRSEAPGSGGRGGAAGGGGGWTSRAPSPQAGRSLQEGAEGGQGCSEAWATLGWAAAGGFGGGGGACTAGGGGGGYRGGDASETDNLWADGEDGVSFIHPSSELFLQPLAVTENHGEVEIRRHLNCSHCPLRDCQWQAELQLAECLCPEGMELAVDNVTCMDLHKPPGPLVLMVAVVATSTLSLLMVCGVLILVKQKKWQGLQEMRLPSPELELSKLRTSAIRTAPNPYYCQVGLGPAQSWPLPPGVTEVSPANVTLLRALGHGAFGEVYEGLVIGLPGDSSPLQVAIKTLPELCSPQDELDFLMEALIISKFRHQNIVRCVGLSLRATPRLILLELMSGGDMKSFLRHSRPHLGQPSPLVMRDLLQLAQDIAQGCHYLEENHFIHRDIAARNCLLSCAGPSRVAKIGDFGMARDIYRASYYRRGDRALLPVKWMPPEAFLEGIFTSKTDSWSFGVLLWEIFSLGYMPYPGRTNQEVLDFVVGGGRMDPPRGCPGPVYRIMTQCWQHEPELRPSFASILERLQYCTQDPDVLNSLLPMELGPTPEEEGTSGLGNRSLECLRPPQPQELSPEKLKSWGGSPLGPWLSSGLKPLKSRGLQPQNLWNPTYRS
T4 sequence (Q9UHD2 whole entry): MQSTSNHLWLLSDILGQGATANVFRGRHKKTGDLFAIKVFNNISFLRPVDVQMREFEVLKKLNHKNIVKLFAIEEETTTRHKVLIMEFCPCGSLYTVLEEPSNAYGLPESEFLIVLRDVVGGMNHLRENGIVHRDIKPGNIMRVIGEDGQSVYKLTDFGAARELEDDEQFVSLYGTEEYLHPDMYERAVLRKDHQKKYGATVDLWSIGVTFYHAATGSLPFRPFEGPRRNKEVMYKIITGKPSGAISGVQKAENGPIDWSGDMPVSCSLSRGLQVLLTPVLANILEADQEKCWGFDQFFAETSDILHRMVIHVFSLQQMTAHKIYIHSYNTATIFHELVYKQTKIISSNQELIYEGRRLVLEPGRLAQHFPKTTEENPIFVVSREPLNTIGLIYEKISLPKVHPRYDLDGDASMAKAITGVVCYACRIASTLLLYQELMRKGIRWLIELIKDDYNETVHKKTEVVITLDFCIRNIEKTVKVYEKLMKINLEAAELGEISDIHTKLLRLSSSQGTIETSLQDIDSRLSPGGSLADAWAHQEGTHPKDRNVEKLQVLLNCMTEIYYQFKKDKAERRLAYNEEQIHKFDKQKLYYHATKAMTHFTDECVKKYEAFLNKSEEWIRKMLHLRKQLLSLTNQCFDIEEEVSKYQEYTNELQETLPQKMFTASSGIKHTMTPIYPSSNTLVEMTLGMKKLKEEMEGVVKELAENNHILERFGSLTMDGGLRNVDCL

Q: With `Oc1ccc(C2=Cc3ccc(O)cc3OC2)cc1` [compound 1, idronoxil] as the compound, how does the remaining activity at 10 µM (LTK) read?
A: The remaining activity at 10 µM was 95%.

Q: And the remaining activity at 10 µM (DYRK1B)?
A: Its remaining activity at 10 µM is 27%.

Q: What about the remaining binding at 10 µM (DRAK1 [1]) of the same compound?
A: Its remaining binding at 10 µM is 4.3%.

Q: What about the remaining binding at 10 µM (PFPK5(P.falciparum)) of the same compound?
A: The remaining binding at 10 µM was 95%.

Q: What about the “KINOMEscan competition binding (403 kinases, 10 μM IDX)” value (DRAK1 [2]) of the same compound?
A: Its value is “broadly a poor kinase inhibitor, only binding its top two targets (PIM2 and DRAK1) in the micromolar range”.

Q: What about the remaining binding at 10 µM (PIM2 [3]) of the same compound?
A: The remaining binding at 10 µM was 2.6%.

Q: And the Kd (DRAK1 [4])?
A: The Kd was 1200 nM.

Q: And the Kd (PIM2 [5])?
A: Its Kd is 2300 nM.

Q: What about the Kd [6] of the same compound?
A: The Kd was 39200 nM.

Q: And the remaining binding at 10 µM (PKNB(M.tuberculosis))?
A: The remaining binding at 10 µM was 76%.

Q: And the “KINOMEscan competition binding (403 kinases, 10 μM IDX)” value (PIM2 [7])?
A: Its value is “broadly a poor kinase inhibitor, only binding its top two targets (PIM2 and DRAK1) in the micromolar range”.
